According to ChEMBL document CHEMBL2390858, “Design, synthesis and anti-tuberculosis activity of 1-adamantyl-3-heteroaryl ureas with improved in vitro pharmacokinetic properties” (Bioorg Med Chem, 2013):
≈ marks a conversion by molar mass, not a printed value.

What was measured:
physchem = details: system solution buffer, pH 7.4
in vitro = details: human, plasma
[1] = target: T1, Bifunctional epoxide hydrolase 2 (Homo sapiens, UniProt P34913)
T1 sequence (P34913 whole entry): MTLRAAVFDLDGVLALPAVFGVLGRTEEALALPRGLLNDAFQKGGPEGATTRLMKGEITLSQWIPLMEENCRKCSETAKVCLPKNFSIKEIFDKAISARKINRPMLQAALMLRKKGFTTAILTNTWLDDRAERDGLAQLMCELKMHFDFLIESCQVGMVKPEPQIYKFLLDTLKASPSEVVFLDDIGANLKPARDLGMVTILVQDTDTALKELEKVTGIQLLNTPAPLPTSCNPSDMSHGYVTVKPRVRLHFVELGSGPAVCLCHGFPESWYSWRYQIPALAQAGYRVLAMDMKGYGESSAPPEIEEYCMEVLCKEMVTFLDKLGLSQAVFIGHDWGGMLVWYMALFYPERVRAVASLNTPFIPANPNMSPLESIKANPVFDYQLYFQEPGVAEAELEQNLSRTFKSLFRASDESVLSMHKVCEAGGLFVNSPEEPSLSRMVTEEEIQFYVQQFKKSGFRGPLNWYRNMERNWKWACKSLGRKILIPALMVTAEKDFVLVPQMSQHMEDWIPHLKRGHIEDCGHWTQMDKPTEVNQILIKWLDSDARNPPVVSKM

Plasma = details: human, 4 h, 10 µM
[2] = buffer, 18 h, pH 7.4
Vero = assay: cells; details: Chlorocebus sabaeus, 72 h
Pseudomonas aeruginosa = assay: microbe, parasite or virus in culture
Proteus vulgaris = assay: microbe, parasite or virus in culture
Proteus mirabilis = assay: microbe, parasite or virus in culture
Klebsiella pneumoniae = assay: microbe, parasite or virus in culture
Escherichia coli = assay: microbe, parasite or virus in culture; details: K-12
Burkholderia cepacia = assay: microbe, parasite or virus in culture
Bacillus subtilis = assay: microbe, parasite or virus in culture
Acinetobacter = assay: microbe, parasite or virus in culture
Streptococcus pneumoniae = assay: microbe, parasite or virus in culture
Streptococcus pyogenes = assay: microbe, parasite or virus in culture
Staphylococcus aureus [3] = assay: microbe, parasite or virus in culture; details: NRS70
Staphylococcus aureus [4] = assay: microbe, parasite or virus in culture; details: ATCC 29213
Enterococcus faecalis = assay: microbe, parasite or virus in culture
Bacillus anthracis = assay: microbe, parasite or virus in culture; details: Sterne
[5] = system: Mycobacterium tuberculosis; assay: microbe, parasite or virus in culture; details: H37Rv, 168 h

| SMILES | solubility at 18 h (physchem) [µg/mL] | fraction unbound at 4 h, 10 µM (in vitro) | IC50 [1] [nM] | IC50 (Vero) [µg/mL] | MIC (Pseudomonas aeruginosa) [µg/mL] | MIC (Proteus vulgaris) [µg/mL] | MIC (Proteus mirabilis) [µg/mL] | MIC (Klebsiella pneumoniae) [µg/mL] | MIC (Escherichia coli) [µg/mL] | MIC (Burkholderia cepacia) [µg/mL] | MIC (Bacillus subtilis) [µg/mL] | MIC (Acinetobacter) [µg/mL] | MIC (Streptococcus pneumoniae) [µg/mL] | MIC (Streptococcus pyogenes) [µg/mL] | MIC (Staphylococcus aureus [3]) [µg/mL] | MIC (Staphylococcus aureus [4]) [µg/mL] | MIC (Enterococcus faecalis) [µg/mL] | MIC (Bacillus anthracis) [µg/mL] | MIC [5] [µg/mL] | other results |
| --- | --- | --- | --- | --- | --- | --- | --- | --- | --- | --- | --- | --- | --- | --- | --- | --- | --- | --- | --- | --- |
| O=C(Nc1ccc(F)c(F)c1F)NC12CC3CC(CC(C3)C1)C2 | < 0.1 | – | – | – | – | – | – | – | – | – | – | – | – | – | – | – | – | – | – | – |
| CC1C(NC(=O)Nc2ccc(F)c(F)c2F)CC2CC1C2(C)C (configuration not stated) | < 0.1 | 0.008 | – | – | – | – | – | – | – | – | – | – | – | – | – | – | – | – | – | – |
| N#Cc1ccc(NC(=O)NC2C3CC4CC(C3)CC2C4)cc1 (configuration not stated) | < 0.1 | 0.01 | – | – | – | – | – | – | – | – | – | – | – | – | – | – | – | – | – | – |
| Cc1ccc(NC(=O)NC2CCCCCC2)cc1Cl | < 0.1 | 0.003 | – | – | – | – | – | – | – | – | – | – | – | – | – | – | – | – | – | – |
| CCCn1nc(NC(=O)NC2C3CC4CC(C3)CC2C4)cc1C (configuration not stated) | – | – | 936 | 83 (≈ 262 µM) | > 200 | > 200 | > 200 | > 200 | > 200 | > 200 | > 200 | > 200 | > 200 | > 200 | > 200 | > 200 | > 200 | > 200 | 1.56 (≈ 4.93 µM) | PPB (Plasma): 98.9%; solubility [2]: 2 µg/mL (≈ 6.32 µM) |
| O=C(Nc1nccs1)NC12CC3CC(CC(C3)C1)C2 | – | – | 83 | 22 (≈ 79.3 µM) | > 200 | > 200 | > 200 | > 200 | > 200 | > 200 | > 200 | > 200 | 100 (≈ 360 µM) | > 200 | > 200 | > 200 | > 200 | > 200 | 3.13 (≈ 11.3 µM) | – |
| Cc1csc(NC(=O)NC23CC4CC(CC(C4)C2)C3)n1 | – | – | 485 | 13 (≈ 44.6 µM) | > 200 | > 200 | > 200 | > 200 | > 200 | > 200 | > 200 | > 200 | 25 (≈ 85.8 µM) | > 200 | 100 (≈ 343 µM) | 50 (≈ 172 µM) | > 200 | > 200 | 1.56 (≈ 5.35 µM) | – |
| Cc1cnc(NC(=O)NC23CC4CC(CC(C4)C2)C3)s1 | – | – | 116 | 23 (≈ 78.9 µM) | > 200 | > 200 | > 200 | > 200 | > 200 | > 200 | > 200 | > 200 | > 200 | > 200 | 200 (≈ 686 µM) | > 200 | 200 (≈ 686 µM) | > 200 | 3.13 (≈ 10.7 µM) | – |
